Measured values from article PMC9950431, “A bivalent remipede toxin promotes calcium release via ryanodine receptor activation” (Nature Communications, 2023).
No end group written: not given here.

Columns and labels:
[1] = biological target: T1, RyR1 (Oryctolagus cuniculus, UniProt P11716); test: Single channel electrophysiology of RyR1 channels inserted into lipid bilayers (exposure to peptide); assay type: biochemical, New Zealand white rabbit (skeletal SR); settings: +40 mV
T1 construct: skeletal SR vesicles were isolated from the back and leg muscles of mature female New Zealand white rabbits; from tissue; host or cells: rabbit back and leg skeletal muscle, sarcoplasmic reticulum vesicles
Experimental: Cardiac SR was prepared from mature female crossbred sheep hearts, and skeletal SR vesicles were isolated from the back and leg muscles of mature female New Zealand white rabbits[29],[54] with approval from the ANU Animal Experiment Ethics Committee Protocol Number A2015/35. […] Solutions for vesicle incorporation contained (mM): cis 230 caesium methanesulfonate (CsMS); 20 CsCl; 1 CaCl2 and 10 […] (TES) pH 7.4 and trans 30 CsMS; 20 CsCl; 1 CaCl2 10 TES; pH 7.4. […] Following incorporation, 200 mM CsMS was added to the trans solution and the cis solution exchanged with recording solution containing (mM): 230 CsMS; 20 CsCl; 0.001 CaCl2;10 TES and pH 7.4, with [Ca^2+] set by a [BAPTA] determined using a Ca^2+ electrode. The cytoplasmic and luminal solutions contained 1 μM and 1 mM Ca^2+ respectively, with symmetrical 250/250 mM CsMS. Bilayer voltage was switched between +40 mV and −40 mV (cytoplasmic voltage relative to grounded luminal solution) every 30 s. The activity of the RyR channels used here included 1 µM Ca^2+ in the cytoplasmic solution and 1 mM Ca^2+ in the luminal solution[29],[55]. Electrophysiology experiments were analysed using Channel 2 (P.W. Gage, M. Smith, Australian National University) and Channel 3 (N.W. Laver, University of Newcastle, Australia) software, available from the authors upon request. Statistical analyses were performed using Microsoft Excel (Office 365). […] Following most incorporation events, a single channel only was active in the bilayer and channel open probability (Po), mean open time (To), mean closed time (Tc) and open event frequency (Fo) were measured. When 2–4 channels were active in a bilayer, PO was approximated from the fractional mean current (I’F), i.e., mean current divided by maximum current. I’F is equal to PO in a single channel and indicates the average PO of multiple channels in a bilayer. […] Experiments at UN also included a minority of multi-channel experiments. The bilayer rigs, solution composition, source of channels, data acquisition and analyses methods were all identical.
Statistical analysis of single channel data was performed using Excel spreadsheets and embedded Students t-test functions or a sign test as indicated in the graphs in Figs. 1 and 3.

[2] = test system: sarcoplasmic reticulum (SR) in mouse extensor digitorum longus (EDL) fibers; test: SR Ca2+ leak in mechanically-skinned EDL muscle fibers (total SR Ca2+ content, [CaT]SR, after 1 min leak); assay type: cell-based, mouse (C57/Bl6)
From the text: All experiments were approved by The University of Queensland Animal Ethics Committees. Male and female C57/Bl6 2–6-month-old mice were sacrificed by asphyxiation via CO2 exposure and the EDL muscles were rapidly excised. The EDL was pinned at resting length in a petri dish lined with Sylgard 184 (Dow Corning, Midland, MI) and immersed in paraffin oil (Ajax Chemicals, Sydney, Australia). Segments of individual fibers were mechanically skinned using jeweler’s forceps and pinned out unstretched under oil[37]–[39]. The skinned fiber was then mounted at 120% of resting length on a force transducer (Myotronic UG, Heidelberg, Germany) before transfer to a 2-ml Perspex bath containing standard K^+-based solution that broadly mimics the intracellular milieu. […] All chemicals were purchased from Sigma-Aldrich (St Louis, MO, USA) unless specified otherwise.
Variations of the standard solution were prepared. To deplete the caffeine releasable Ca^2+ (“full release solution”), 30 mM caffeine was added, [Mg^2+] was lowered to 0.05 mM (total Mg^2+ of 2.1 mM) and free EGTA was adjusted to 0.5 mM (pCa 8.5) to chelate released Ca^2+. To measure the maximum force produced by the skinned fiber, all HDTA was replaced by EGTA (relaxing solution) or CaEGTA (maximum Ca^2+ activating solution). The relaxing solution contained 50 mM EGTA and no added Ca^2+ (pCa > 9) and the maximum Ca^2+-activating solution contained 49.5 mM Ca^2+ (pCa 4.7), with total Mg^2+ of 10.3 and 8.1 mM, respectively, to maintain the free [Mg^2+] at 1 mM. A “leak solution” was also prepared, where [Mg^2+] set at 0.1 mM (total Mg^2+ of 3.4 mM) to increase the PO of RyR and with 2 mM EGTA (pCa ~8.5) to chelate leaky Ca^2+ from the SR. […] The BAPTA solution used to pre-equilibrate fibers before lysing was similar to the standard K-HDTA solution but EGTA was replaced with 0.1–1.6 mM BAPTA[37],[39].
The skinned fiber was then equilibrated for 20 s in a solution with a set [BAPTA] before being placed in a freshly triturated emulsion of Triton X-100 in paraffin oil (TX–oil) (10% v/v). The Ca^2+ released upon the membrane lysing rapidly binds to the known amount of BAPTA present within the fiber and to other sites, predominantly troponin C (TnC). The pre-equilibrating [BAPTA] was chosen such that the fiber produced a finite, non-maximal force response upon lysis. Pre-treatment of the fiber with “full release solution” allowed the non-SR Ca^2+ content of the skinned fiber to be assayed. The total amount of Ca^2+ present in the fiber could be calculated from the [BAPTA] in the equilibration solution and the magnitude of the force response. Data are presented as mean ± SD, with n denoting the number of fibers examined. Statistical significance (p < 0.05) was determined with One-way ANOVA.

[3] = biological target: T2, ryanodine receptor (Oryctolagus cuniculus, UniProt P11716); test: Single channel recording, exposure to peptide (sheet "Supp Fig 11"; RyR isoform not given); assay type: biochemical; settings: IpTxA; combined average 100pM, 1nM and 5nM; 7 listed values; sem 0.460531; t-test 3.72E-02; control = 1
T2 construct: skeletal SR vesicles were isolated from the back and leg muscles of mature female New Zealand white rabbits; from tissue; host or cells: rabbit back and leg skeletal muscle, sarcoplasmic reticulum vesicles
From the text: Supplement 41467_2023_36579_MOESM6_ESM.xlsx, sheet "Supp Fig 11" | column: mean Tc; mean To; mean Po; rel Tc; rel To; rel Po

[4] = biological target: T1, RyR1; settings: cited from earlier work
Experimental: Electrophysiology experiments were carried out to determine the potency of each peptide. […] It is known that the activity of I ...

[5] = test system: TRPV1; settings: cited from earlier work
[6] = test system: RyR1; set-up: method as in PMID 21323602; settings: cited from earlier work
[7] = test system: RyR2; set-up: method as in PMID 21323602; settings: cited from earlier work

T1 sequence (P11716 whole entry): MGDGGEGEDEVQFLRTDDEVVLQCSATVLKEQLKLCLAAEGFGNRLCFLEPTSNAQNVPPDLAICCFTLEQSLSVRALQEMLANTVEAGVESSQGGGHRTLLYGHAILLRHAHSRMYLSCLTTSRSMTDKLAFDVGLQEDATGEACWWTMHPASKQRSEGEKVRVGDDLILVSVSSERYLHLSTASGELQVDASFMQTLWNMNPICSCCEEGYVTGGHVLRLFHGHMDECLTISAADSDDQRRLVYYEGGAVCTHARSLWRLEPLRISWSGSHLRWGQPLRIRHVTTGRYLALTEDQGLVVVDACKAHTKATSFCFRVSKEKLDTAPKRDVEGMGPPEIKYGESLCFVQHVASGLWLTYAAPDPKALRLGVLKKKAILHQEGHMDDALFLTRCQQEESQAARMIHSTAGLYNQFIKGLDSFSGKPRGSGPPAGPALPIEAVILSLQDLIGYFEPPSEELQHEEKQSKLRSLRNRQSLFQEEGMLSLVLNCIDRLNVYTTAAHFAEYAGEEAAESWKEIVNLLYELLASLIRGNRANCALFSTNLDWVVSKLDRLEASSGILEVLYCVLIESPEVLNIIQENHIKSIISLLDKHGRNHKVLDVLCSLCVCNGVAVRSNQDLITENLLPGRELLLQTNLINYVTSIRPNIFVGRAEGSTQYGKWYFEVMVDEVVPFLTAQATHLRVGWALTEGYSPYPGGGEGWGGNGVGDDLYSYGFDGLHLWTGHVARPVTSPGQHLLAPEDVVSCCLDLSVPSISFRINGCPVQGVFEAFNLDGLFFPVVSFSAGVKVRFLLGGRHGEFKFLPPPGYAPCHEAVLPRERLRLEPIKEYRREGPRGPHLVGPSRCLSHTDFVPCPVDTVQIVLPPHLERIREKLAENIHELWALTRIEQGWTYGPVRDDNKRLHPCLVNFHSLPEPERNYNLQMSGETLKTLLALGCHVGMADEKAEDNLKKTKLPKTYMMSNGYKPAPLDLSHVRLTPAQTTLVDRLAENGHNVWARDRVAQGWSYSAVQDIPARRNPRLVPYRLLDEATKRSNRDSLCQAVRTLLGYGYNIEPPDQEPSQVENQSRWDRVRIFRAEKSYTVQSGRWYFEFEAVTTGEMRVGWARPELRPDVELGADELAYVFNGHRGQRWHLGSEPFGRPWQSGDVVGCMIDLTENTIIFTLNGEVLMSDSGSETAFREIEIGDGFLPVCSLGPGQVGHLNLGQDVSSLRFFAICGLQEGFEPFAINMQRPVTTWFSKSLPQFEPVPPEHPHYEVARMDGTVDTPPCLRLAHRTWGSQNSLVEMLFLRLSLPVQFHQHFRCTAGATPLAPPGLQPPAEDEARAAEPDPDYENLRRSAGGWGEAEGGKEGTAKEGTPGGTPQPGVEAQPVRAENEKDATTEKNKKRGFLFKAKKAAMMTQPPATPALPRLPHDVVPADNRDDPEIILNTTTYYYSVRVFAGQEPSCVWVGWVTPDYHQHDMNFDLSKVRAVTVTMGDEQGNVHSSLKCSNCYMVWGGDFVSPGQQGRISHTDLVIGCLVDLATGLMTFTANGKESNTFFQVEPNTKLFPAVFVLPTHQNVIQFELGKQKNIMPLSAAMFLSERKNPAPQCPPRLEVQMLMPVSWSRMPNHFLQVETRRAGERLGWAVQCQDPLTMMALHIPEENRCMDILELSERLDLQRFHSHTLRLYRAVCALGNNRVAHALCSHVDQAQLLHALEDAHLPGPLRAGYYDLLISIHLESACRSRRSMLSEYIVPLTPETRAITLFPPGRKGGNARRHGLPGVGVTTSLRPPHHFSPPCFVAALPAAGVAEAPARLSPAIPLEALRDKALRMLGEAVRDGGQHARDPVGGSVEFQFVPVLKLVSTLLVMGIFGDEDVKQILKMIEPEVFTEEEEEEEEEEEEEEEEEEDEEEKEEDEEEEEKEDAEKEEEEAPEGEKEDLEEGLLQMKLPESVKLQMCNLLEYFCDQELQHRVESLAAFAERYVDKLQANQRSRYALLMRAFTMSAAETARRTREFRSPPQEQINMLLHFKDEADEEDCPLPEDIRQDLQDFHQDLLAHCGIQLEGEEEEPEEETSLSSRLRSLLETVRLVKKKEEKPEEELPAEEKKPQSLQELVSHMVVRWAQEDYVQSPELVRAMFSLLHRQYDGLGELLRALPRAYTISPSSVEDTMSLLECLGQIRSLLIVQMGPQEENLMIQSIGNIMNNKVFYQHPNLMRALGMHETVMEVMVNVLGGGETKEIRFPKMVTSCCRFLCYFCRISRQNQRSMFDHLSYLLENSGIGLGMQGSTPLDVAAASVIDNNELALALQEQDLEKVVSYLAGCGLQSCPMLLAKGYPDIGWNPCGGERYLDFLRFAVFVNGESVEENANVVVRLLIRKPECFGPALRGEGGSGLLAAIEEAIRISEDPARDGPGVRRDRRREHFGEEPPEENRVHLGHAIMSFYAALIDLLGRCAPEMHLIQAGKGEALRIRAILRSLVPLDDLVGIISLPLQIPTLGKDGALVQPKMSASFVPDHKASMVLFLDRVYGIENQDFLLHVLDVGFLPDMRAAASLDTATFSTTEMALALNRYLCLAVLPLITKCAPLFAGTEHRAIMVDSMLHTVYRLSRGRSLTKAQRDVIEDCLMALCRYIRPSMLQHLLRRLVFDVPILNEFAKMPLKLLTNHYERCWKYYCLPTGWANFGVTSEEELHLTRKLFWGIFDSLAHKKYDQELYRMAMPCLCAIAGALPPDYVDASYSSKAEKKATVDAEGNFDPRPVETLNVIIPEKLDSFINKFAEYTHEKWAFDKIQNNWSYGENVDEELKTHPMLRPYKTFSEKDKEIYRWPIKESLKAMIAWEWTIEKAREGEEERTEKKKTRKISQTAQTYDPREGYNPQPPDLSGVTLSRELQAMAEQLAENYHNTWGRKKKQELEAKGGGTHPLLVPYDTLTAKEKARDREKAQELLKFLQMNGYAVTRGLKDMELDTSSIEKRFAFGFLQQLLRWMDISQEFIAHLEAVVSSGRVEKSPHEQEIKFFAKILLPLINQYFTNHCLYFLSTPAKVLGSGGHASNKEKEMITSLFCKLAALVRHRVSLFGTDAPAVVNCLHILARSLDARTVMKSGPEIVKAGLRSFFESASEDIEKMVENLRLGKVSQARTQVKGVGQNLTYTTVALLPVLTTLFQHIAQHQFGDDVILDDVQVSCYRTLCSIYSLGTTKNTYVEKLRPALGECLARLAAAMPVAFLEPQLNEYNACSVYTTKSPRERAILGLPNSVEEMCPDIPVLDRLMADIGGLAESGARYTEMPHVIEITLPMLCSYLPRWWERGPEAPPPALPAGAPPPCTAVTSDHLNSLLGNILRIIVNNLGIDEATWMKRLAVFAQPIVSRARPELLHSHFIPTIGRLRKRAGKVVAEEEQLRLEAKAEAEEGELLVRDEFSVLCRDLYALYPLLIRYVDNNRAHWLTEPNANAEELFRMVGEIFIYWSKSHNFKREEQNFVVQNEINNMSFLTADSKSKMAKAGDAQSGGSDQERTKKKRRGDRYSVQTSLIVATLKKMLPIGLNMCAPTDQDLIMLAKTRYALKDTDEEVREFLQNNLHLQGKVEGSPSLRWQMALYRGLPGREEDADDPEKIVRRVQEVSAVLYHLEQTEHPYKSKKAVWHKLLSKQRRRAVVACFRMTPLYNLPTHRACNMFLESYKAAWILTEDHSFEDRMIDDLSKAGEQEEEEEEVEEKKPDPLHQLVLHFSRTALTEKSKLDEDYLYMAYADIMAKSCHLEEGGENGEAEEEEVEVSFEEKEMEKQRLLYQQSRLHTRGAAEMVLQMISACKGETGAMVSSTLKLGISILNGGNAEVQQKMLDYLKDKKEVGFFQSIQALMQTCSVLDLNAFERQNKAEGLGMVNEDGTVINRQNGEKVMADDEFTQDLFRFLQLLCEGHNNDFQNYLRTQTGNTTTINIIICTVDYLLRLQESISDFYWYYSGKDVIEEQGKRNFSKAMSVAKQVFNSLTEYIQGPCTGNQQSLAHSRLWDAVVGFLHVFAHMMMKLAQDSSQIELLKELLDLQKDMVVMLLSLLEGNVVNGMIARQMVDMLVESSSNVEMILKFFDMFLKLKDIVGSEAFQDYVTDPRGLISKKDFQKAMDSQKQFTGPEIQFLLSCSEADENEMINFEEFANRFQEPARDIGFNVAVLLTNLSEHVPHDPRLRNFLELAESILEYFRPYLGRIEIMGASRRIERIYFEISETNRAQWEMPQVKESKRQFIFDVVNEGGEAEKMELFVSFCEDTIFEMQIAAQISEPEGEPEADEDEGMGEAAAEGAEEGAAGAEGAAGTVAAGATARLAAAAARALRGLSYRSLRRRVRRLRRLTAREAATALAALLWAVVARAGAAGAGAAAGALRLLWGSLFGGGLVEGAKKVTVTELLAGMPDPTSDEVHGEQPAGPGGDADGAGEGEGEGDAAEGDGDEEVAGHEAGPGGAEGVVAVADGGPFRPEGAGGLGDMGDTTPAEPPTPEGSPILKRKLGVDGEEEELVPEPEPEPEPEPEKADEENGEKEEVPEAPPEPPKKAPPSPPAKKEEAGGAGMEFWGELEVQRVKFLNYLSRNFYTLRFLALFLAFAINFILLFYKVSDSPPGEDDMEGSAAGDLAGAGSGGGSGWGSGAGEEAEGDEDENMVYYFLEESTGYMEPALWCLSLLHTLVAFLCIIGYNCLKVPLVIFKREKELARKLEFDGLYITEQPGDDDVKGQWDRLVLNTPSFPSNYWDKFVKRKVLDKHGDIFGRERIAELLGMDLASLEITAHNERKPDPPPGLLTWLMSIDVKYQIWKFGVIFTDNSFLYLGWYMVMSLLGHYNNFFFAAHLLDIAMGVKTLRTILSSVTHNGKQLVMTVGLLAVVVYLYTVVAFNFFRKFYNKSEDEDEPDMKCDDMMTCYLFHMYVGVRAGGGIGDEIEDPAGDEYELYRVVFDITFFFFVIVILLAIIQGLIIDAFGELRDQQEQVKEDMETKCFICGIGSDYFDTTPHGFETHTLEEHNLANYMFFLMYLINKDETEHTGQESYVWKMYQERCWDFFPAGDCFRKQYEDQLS
T2 sequence (P11716 whole entry, canonical isoform): as the sequence (P11716 whole entry) above

imperatoxin-A (GDCLPHLKRCKADNDCCGKKCKRRGTNAEKRCR; not fully specified; ends and bridges not checked; UniProt P59868 1-33, looked up) [IpTxA, member of the calcin family of scorpion derived ICK toxins, recombinant (SUMO fusion), reference compound]
activation of RyR1 ([1]; 0.1 nM n=2, 1 nM n=3, 10 nM n=2 grouped (n=7, P=3.7E-02)): show activation withn a similar range
activation of RyR1 channels ([1]; isolated domains and IpTxA): potent (pM to nM) activation of RyR1 channels
efficiency to increase SR Ca2+ leakage (order) ([2]; 10 nM): Xt3a > Xt3a-D1 ~ IpTxA > Xt3a-D2
depletion of [CaT]SR ([2]; 10 nM peptide in leak solution, 1 min leak, mean ± SD, control leak 18 ± 7%): 55 ± 18%
Relative amount of total Ca2+ left in the SR ([CaT]SR) ([2]; 10 nM peptide, 1 min leak, relative to Pre, fiber 2 of column): 17.9
Relative amount of total Ca2+ left in the SR ([CaT]SR) ([2]; 10 nM peptide, 1 min leak, relative to Pre, fiber 3 of column): 33.5
Relative amount of total Ca2+ left in the SR ([CaT]SR) ([2]; 10 nM peptide, 1 min leak, relative to Pre, fiber 4 of column): 46.4
Relative amount of total Ca2+ left in the SR ([CaT]SR) ([2]; 10 nM peptide, 1 min leak, relative to Pre, fiber 5 of column): 44.7
Relative amount of total Ca2+ left in the SR ([CaT]SR) ([2]; 10 nM peptide, 1 min leak, relative to Pre, fiber 6 of column): 44.3
Relative amount of total Ca2+ left in the SR ([CaT]SR) ([2]; 10 nM peptide, 1 min leak, relative to Pre, fiber 7 of column): 51.6
Relative amount of total Ca2+ left in the SR ([CaT]SR) ([2]; 10 nM peptide, 1 min leak, relative to Pre, fiber 8 of column): 48.5
Relative amount of total Ca2+ left in the SR ([CaT]SR) ([2]; 10 nM peptide, 1 min leak, relative to Pre, fiber 9 of column): 70.6
Relative amount of total Ca2+ left in the SR ([CaT]SR) ([2]; 10 nM peptide, 1 min leak, relative to Pre, fiber 10 of column): 71.5
Relative amount of total Ca2+ left in the SR ([CaT]SR), mean ([2]; 10 nM peptide, 1 min leak, relative to Pre, mean (n = 13 Xt3a, n = 10 others)): 44.8
Relative amount of total Ca2+ left in the SR ([CaT]SR) ([2]; 10 nM peptide, 1 min leak, relative to [CaT]SR before the leak (Pre), fiber 1 of column): 19.4
mean rel Po [3]: 1.9
reversibility of activity [4]: reversible

B1: DkTx: double-knot spider toxin with tandem repeat ICK structure, TRPV1 (peptide, UniProt P0CH43 1-79, looked up)
Tau-theraphotoxin-Hs1a: DCAKEGEVCSWGKKCCDLDNFYCPMEFIPHCKKYKPYVPVTTNCAKEGEVCGWGSKCCHGLDCPLAFIPYCEKYRGRND
avidity on washout [5]: high avidity, evidenced by persistent activity during washout

B2: GSTm2: glutathione transferase reported to modulate RyR1 and RyR2 (protein, UniProt P28161 1-218, looked up)
Glutathione S-transferase Mu 2: MPMTLGYWNIRGLAHSIRLLLEYTDSSYEEKKYTMGDAPDYDRSQWLNEKFKLGLDFPNLPYLIDGTHKITQSNAILRYIARKHNLCGESEKEQIREDILENQFMDSRMQLAKLCYDPDFEKLKPEYLQALPEMLKLYSQFLGKQPWFLGDKITFVDFIAYDVLERNQVFEPSCLDAFPNLKDFISRFEGLEKISAYMKSSRFLPRPVFTKMAVWGNK
effect on RyR1 activity [6]: slightly increases the activity of RyR1
effect on RyR2 activity [7]: strongly inhibits RyR2
